Test results from patent US9855270B2, “Methods and compositions for modulating estrogen receptor mutants” (priority 2014, dated 2018).
Read-outs that look alike come from different tables or passages of the source.

Tests used:
Format in all cases: cell-based
[1] = system: MCF-7 cells stably expressing EF1 HA-ER-α L536R; assay: cells; settings: EF1 HA-ER-α L536R; for Percent inhibition compared to vehicle: 5-Day Incubation; for Efficacy (Emax): Day 5 relative to Day 0; for EC50: Homo sapiens, MCF7, read-out: Potency (EC50; nM)
Summary of the method: (§1)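 CellTiter-Glo read-out: background-subtracted RLU divided by day-0 RLU gives fold proliferation. Cells were MCF-7 transduced with HA-ER-α lentivirus (EF1 high or UbC low-moderate promoter) or empty vector, dosed 10 μM–5 pM for 5 days in phenol-free RPMI/10% CSS.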

[2] = system: MCF-7 cells stably expressing UbC HA-ER-α L536P; assay: cells; settings: for EC50: Homo sapiens, MCF7, read-out: Potency (EC50; nM)
Summary of the method: (§2)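 MCF-7 lines stably expressing N-terminal HA-tagged ESR1 (wild-type or mutant) from EF1 (puromycin-selected) or UbC (hygromycin-selected) lentiviral vectors, or empty vector, were seeded in phenol-free RPMI with 10% CSS.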

[3] = system: MCF-7 cells stably expressing EF1 HA-ER-α Y537N; assay: cells; settings: EF1 HA-ER-α Y537N; for Efficacy (Emax): Day 5 relative to Day 0; for EC50: Homo sapiens, MCF7, read-out: Potency (EC50; nM)
Summary of the method: as §1

[4] = system: MCF-7 cells stably expressing UbC HA-ER-α L536R; assay: cells; settings: UbC HA-ER-α L536R; for EC50: Homo sapiens, MCF7, read-out: Potency (EC50; nM); for Percent inhibition compared to vehicle: 5-Day Incubation; for Efficacy (Emax): Day 5 relative to Day 0
Summary of the method: as §2

[5] = system: MCF-7 cells stably expressing EF1 HA-ER-α L536P; assay: cells; settings: EF1 HA-ER-α L536P; for Percent inhibition compared to vehicle: 5-Day Incubation; for Efficacy (Emax): Day 5 relative to Day 0; for EC50: Homo sapiens, MCF7, read-out: Potency (EC50; nM)
Summary of the method: as §1

[6] = system: MCF-7 cells stably expressing UbC HA-ER-α Y537N; assay: cells; settings: UbC HA-ER-α Y537N; for EC50: Homo sapiens, MCF7, read-out: Potency (EC50; nM); for Percent inhibition compared to vehicle: 5-Day Incubation; for Efficacy (Emax): Day 5 relative to Day 0
Summary of the method: as §2

[7] = system: MCF-7 cells (negative control); assay: MCF-7 Stable Cell Line Viability (UbC HA-ER-α series); settings: Receptor None (MCF-7 negative control); for EC50: Homo sapiens, MCF7, read-out: Potency (EC50; nM)
Summary of the method: as §2

[8] = system: MCF-7 cells stably expressing UbC HA-ER-α wild-type; assay: as above; settings: UbC HA-ER-α Wild-type; for EC50: Homo sapiens, MCF7, read-out: Potency (EC50; nM); for Percent inhibition compared to vehicle: 5-Day Incubation; for Efficacy (Emax): Day 5 relative to Day 0
Summary of the method: as §1

[9] = Antagonist Mode, −E2 (Table 27)
[10] = Agonist Mode, −E2, 5-Day Incubation
[11] = Agonist Mode, −E2, Day 5 relative to Day 0
[12] = Antagonist Mode, +E2, 5-Day Incubation
[13] = Antagonist Mode, +E2, Day 5 relative to Day 0

Which results are given for C[C@]12CC[C@@H]3c4ccc(O)cc4C[C@@H](CCCCCCCCC[S+]([O-])CCCC(F)(F)C(F)(F)F)[C@H]3[C@@H]1CC[C@@H]2O (some centres unmarked) [Fulvestrant]?
Percent inhibition compared to vehicle ([1]; Agonist Mode, −E2): 42%; Efficacy (Emax) ([1]; Agonist Mode, −E2): 3.95 ± 0.36; Percent inhibition compared to vehicle ([1]; Antagonist Mode, +E2): 48%; Efficacy (Emax) ([1]; Antagonist Mode, +E2): 3.53 ± 0.28; EC50 ([1]; Agonist Mode, −E2): 6.29 ± 1.13 nM; EC50 ([1]; Antagonist Mode, +E2): 35 ± 2.77 nM; EC50 [1, 9]: 6.29 ± 1.13 nM; Percent inhibition compared to vehicle [2, 10]: 47%; Efficacy (Emax) [2, 11]: 1.66 ± 0.11; Percent inhibition compared to vehicle [2, 12]: 71%; Efficacy (Emax) [2, 13]: 1.73 ± 0.08; EC50 ([2]; Agonist Mode, −E2): 0.298 ± 0.132 nM; EC50 ([2]; Antagonist Mode, +E2): 2.59 ± 2.58 nM; Efficacy (Emax) ([3]; Agonist Mode, −E2): 0.52 ± 0.09; Percent inhibition compared to vehicle [3, 12]: 90%; Efficacy (Emax) ([3]; Antagonist Mode, +E2): 0.56 ± 0.02; EC50 ([3]; Agonist Mode, −E2): 9.26 ± 2.39 nM; EC50 ([3]; Antagonist Mode, +E2): 12.4 ± 3.52 nM; EC50 [3, 9]: 9.26 ± 2.39 nM; EC50 ([4]; Agonist Mode, −E2): 0.257 ± 0.09 nM; EC50 ([4]; Antagonist Mode, +E2): 2.3 ± 1.81 nM; Percent inhibition compared to vehicle ([4]; Agonist Mode, −E2): 55%; Efficacy (Emax) ([4]; Agonist Mode, −E2): 1.71 ± 0.22; Percent inhibition compared to vehicle ([4]; Antagonist Mode, +E2): 71%; Efficacy (Emax) ([4]; Antagonist Mode, +E2): 1.71 ± 0.16; Percent inhibition compared to vehicle ([5]; Agonist Mode, −E2): 56%; Efficacy (Emax) ([5]; Agonist Mode, −E2): 3.58 ± 0.10; Percent inhibition compared to vehicle ([5]; Antagonist Mode, +E2): 60%; Efficacy (Emax) ([5]; Antagonist Mode, +E2): 3.65 ± 0.56; EC50 ([5]; Agonist Mode, −E2): 4.51 ± 0.313 nM; EC50 ([5]; Antagonist Mode, +E2): 16.4 ± 8.21 nM; EC50 [5, 9]: 4.51 ± 0.313 nM; EC50 ([6]; Agonist Mode, −E2): 0.355 ± 0.163 nM; EC50 ([6]; Antagonist Mode, +E2): 1.77 ± 0.387 nM; Percent inhibition compared to vehicle ([6]; Agonist Mode, −E2): 63%; Efficacy (Emax) ([6]; Agonist Mode, −E2): 1.61 ± 0.15; Percent inhibition compared to vehicle ([6]; Antagonist Mode, +E2): 77%; Efficacy (Emax) ([6]; Antagonist Mode, +E2): 1.49 ± 0.00; EC50 ([7]; Agonist Mode, −E2): 0.05 ± 0.017 nM; EC50 ([7]; Antagonist Mode, +E2): 0.327 ± 0.324 nM; Percent inhibition compared to vehicle [7, 10]: 28%; Efficacy (Emax) [7, 11]: 1.27 ± 0.24; Percent inhibition compared to vehicle [7, 12]: 64%; Efficacy (Emax) [7, 13]: 1.15 ± 0.01; EC50 ([8]; Agonist Mode, −E2): 0.08 ± 0.042 nM; EC50 ([8]; Antagonist Mode, +E2): 0.516 ± 0.479 nM; Percent inhibition compared to vehicle ([8]; Agonist Mode, −E2): 37%; Efficacy (Emax) ([8]; Agonist Mode, −E2): 1.17 ± 0.13; Percent inhibition compared to vehicle ([8]; Antagonist Mode, +E2): 75%; Efficacy (Emax) ([8]; Antagonist Mode, +E2): 1.23 ± 0.09
